Among the data in patent US20240239788A1, “SMALL MOLECULE INHIBITORS OF KRAS G12D MUTANT” (Merck Sharp & Dohme LLC, priority 2021, published 2024) are IC50 values, retold here.

In assay [1] the target is KRAS protein containing G12D mutation (Homo sapiens (Human), UniProt P01116, G12D). The assay can be described thus: SOS-catalyzed nucleotide exchange assay (GNE), TR-FRET. Type of assay: biochemical. The settings on record: biotinylated KRAS G12D, SOS and GTP, 60-minute incubation. As to the method: Compounds are added to this complex and then after a 60-minute incubation time the mixture is treated with SOS and unlabeled GTP. Small molecule inhibitors stabilize the Bodipy-GDP complex whereas the untreated protein rapidly exchanges Bodipy-GDP for unlabeled GTP resulting in reduced TR-FRET signal.
Chain of KRAS protein containing G12D mutation (P01116 other isoform, or with tags, fused parts or gaps G12D (already in the parent)): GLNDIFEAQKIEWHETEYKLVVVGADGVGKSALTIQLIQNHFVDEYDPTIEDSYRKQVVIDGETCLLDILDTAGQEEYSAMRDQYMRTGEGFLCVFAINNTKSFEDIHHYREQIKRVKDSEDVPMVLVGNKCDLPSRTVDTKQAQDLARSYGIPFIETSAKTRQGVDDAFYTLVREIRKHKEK
This solution is referred to as biotinylated KRAS G12D stock solution.

For assay [2], the system named is AsPC-1 cells containing homozygous KRAS-G12D activating mutation. The assay can be described thus: Cellular phospho-ERK assay (Examples 1a-106). Type of assay: cell-based. The settings on record: AsPC-1 cells, 2 hours, ratio of p-Erk vs total Erk, read-out: IC50 (nM) pERK (Cell). An excerpt:
5% CO? overnight. […] Assay plates were read on a EnVision Multimode Plate Reader (PerkinElmer) and the ratio of p-Erk vs total Erk in each well was used as the final readout.

Assay [3] concerns the target KRAS G12D / Ras binding domain of C-RAF (Homo sapiens (Human), UniProt P01116, G12D). The assay can be described thus: RAS:RAF-RBD binding assay (cRaf), TR-FRET. The settings on record: biotinylated KRAS G12D, GST-C-RAF RBD. (In general: Time-resolved FRET reads energy transfer from a long-lived donor to a nearby acceptor.)
Protocol: Compounds are added to KRAS and then after a 30-minute incubation time the RAF-RBD and detection antibodies are added. Small molecule inhibitors that block the interaction of c-RAF-RBD prevent generation of a TR-FRET signal.
Biotinylated KRAS G12D protein is diluted to 20 nM in assay buffer (20 mM HEPES pH 7.5, 150 mM sodium chloride, 10 mM magnesium chloride, and 0.01% Tween20).
Each test compound (10 mM stock in DMSO) is diluted in DMSO to make a 10-point, 3-fold dilution series in a 384-well low dead volume microplate (Labcyte, catalog #LP-0200).
Each well of the assay plate receives 5 μL of Biotinylated KRAS G12D assay solution and is incubated at room temperature for 30 minutes. Each well then receives 5 μL of 100 nM GST-C-RAF RBD protein and a 1:100 dilution of both anti-GST-d2 (Cisbio catalog #61GSTDLA) and Streptavidin-Tb cryptate (Cisbio catalog #610SATLA) in assay buffer and the plate is mixed and briefly centrifuged followed by a 60 minute incubation at room temperature.
The apparent effect as a function of compound concentration is fit to a four-parameter logistic equation.

SMILES strings stand for the structures. Read-outs that look alike come from different tables or passages of the source.

Chain of KRAS G12D / Ras binding domain of C-RAF (P01116 other isoform, or with tags, fused parts or gaps G12D (already in the parent)): as above

For the compound `CN(C)CC1(COc2nc(N3CC4CC[C@@](C)(C3)N4)c3cc(Cl)c(-c4cc(O)cc5ccccc45)c(F)c3n2)CC1` [Example 35, 4-(6-chloro-2-((1-((dimethylamino)meth-yl)cyclopro-pyl)methoxy)-8-fluoro-4-((1S,5R)-1-methyl-3,8-diaza-bicyclo[3.2.1]octan-3-yl)quinazolin-7-yl)naphthalen-2-ol], the concentration for half-maximal inhibition (IC50) in assay [1] stood at 27.3 nM; in assay [2] (Homo sapiens, ASPC1, 2 h) it was 2260 nM; in assay [3] (IC50 (nM) (cRaf)) it was 1890 nM.

`Cc1cc2[nH]ncc2c(-c2c(F)cc3c(N4C[C@H]5CC[C@@](C)(C4)N5)nc(OC[C@]4(CN(C)C)CC4(F)F)nc3c2F)c1C` [Ex 82, 1-((1R)-1-(((7-(5,6-dimethyl-1H-indazol-4-yl)-6,8-difluoro-4-((1S,5R)-1-methyl-3,8-diazabicyclo[3.2.1]octan-3-yl)quinazolin-2-yl)oxy)methyl)-2,2-difluorocyclopropyl)-N,N-dimethylmethanamine]: the IC50 in assay [1] turned out to be 89.3 nM; in assay [2] (Homo sapiens, ASPC1, 2 h), 2200 nM; in assay [3] (IC50 (nM) (cRaf)) it was 14800 nM.

On to `Cc1c(Cl)cc2[nH]nc(C)c2c1-c1c(F)cc2c(N3C[C@H]4CC[C@@](C)(C3)N4)nc(OCC3(CN4CC[C@@H](F)C4)CC3)nc2c1F` [Ex 84, 7-(6-chloro-3,5-dimethyl-1H-indazol-4-yl)-6,8-difluoro-2-((1-(((R)-3-fluoropyrrolidin-1-yl)methyl)cyclopropyl)methoxy)-4-((1S,5R)-1-methyl-3,8-diazabicyclo[3.2.1]octan-3-yl)quinazoline], for which the IC50 amounted to 156 nM in assay [1]; 6160 nM in assay [2] (Homo sapiens, ASPC1, 2 h); 9320 nM in assay [3] (IC50 (nM) (cRaf)).

Consider `CN(C)CC1(COc2nc(N3C[C@@H]4CC[C@](C)(C3)N4)c3cc(F)c(-c4cc(O)cc5ccccc45)c(F)c3n2)CC1` [Example 20, 4-(2-((1-((dimethylamino)methyl)cyclopropyl)methoxy)-6,8-difluoro-4-((1R,5S)-1-methyl-3,8-diazabicyclo[3.2.1]octan-3-yl)quinazolin-7-yl)naphthalen-2-ol], for which the IC50 in assay [1] came to 117 nM; in assay [2] (Homo sapiens, ASPC1, 2 h) it was 3500 nM; in assay [3] (IC50 (nM) (cRaf)) it was 14400 nM.

As for `C[C@]12CC[C@H](CN(c3nc(OCC4(CN5CC[C@@H](F)C5)CC4)nc4c(F)c(-c5cc(O)cc6ccccc56)c(F)cc34)C1)N2` [Ex 81, 4-(6,8-difluoro-2-((1-(((R)-3-fluoropyrrolidin-1-yl)methyl)cyclopropyl)methoxy)-4-((1S,5R)-1-methyl-3,8-diazabicyclo[3.2.1]octan-3-yl)quinazolin-7-yl)naphthalen-2-ol], the 50% inhibitory concentration (IC50) is 16.5 nM in assay [1]; 467 nM in assay [2] (Homo sapiens, ASPC1, 2 h); 1980 nM in assay [3] (IC50 (nM) (cRaf)).

Regarding `Cc1cc2[nH]ncc2c(C2Cc3nc(OC[C@]4(CN(C)C)CC4(F)F)nc(N4C[C@H]5CC[C@@](C)(C4)N5)c3C(=O)O2)c1C(F)(F)F` (single isomer, unassigned) [Ex. 96b], the values for the IC50 in assay [1], in assay [2] and in assay [3] (IC50 (nM) (cRaf)) were 3.31 nM, 657 nM and 637 nM, respectively.

On to `Cc1c(Cl)cc2[nH]nc(C)c2c1-c1c(F)cc2c(N3C[C@H]4CC[C@@](C)(C3)N4)nc(OCC3(CN(C)C)CC3(F)F)nc2c1F` (single isomer, unassigned) [Ex 68], for which the IC50 in assay [1] turned out to be 39.9 nM; in assay [2] (Homo sapiens, ASPC1, 2 h), 2380 nM; in assay [3] (IC50 (nM) (cRaf)), 3300 nM.

Regarding `CN(C)CC1(COc2nc(N3C[C@H]4C[C@@H](O)[C@@H](C3)N4)c3cc(Cl)c(-c4cc(O)cc5ccccc45)c(F)c3n2)CC1` (single isomer, unassigned) [Example 18a], the values for the IC50 in assay [1], in assay [2] and in assay [3] (IC50 (nM) (cRaf)) were 8.97 nM, 20600 nM and 293 nM, respectively.

Take `CN(C)C[C@@]1(COc2nc(N3C[C@H]4CC[C@@](C)(C3)N4)c3cc(F)c(-c4cc(O)cc5ccccc45)c(F)c3n2)CC1(F)F` [Ex 69, 4-(2-(((R)-1-((dimethylamino)methyl)-2,2-difluorocyclopropyl)methoxy)-6,8-difluoro-4-((1S,5R)-1-methyl-3,8-diazabicyclo[3.2.1]octan-3-yl)quinazolin-7-yl)naphthalen-2-ol]: the IC50 in assay [1] was 1.76 nM; in assay [2] (Homo sapiens, ASPC1, 2 h), 275 nM; in assay [3] (IC50 (nM) (cRaf)) it was 194 nM.

Regarding `Cc1cc2[nH]nc(C)c2c(-c2c(F)cc3c(N4C[C@H]5CC[C@@](C)(C4)N5)nc(OC[C@]4(CN(C)C)CC4(F)F)nc3c2F)c1Cl` [Ex 79, 1-((1R)-1-(((7-(5-chloro-3,6-dimethyl-1H-indazol-4-yl)-6,8-difluoro-4-((1S,5R)-1-methyl-3,8-diazabicyclo[3.2.1]octan-3-yl)quinazolin-2-yl)oxy)methyl)-2,2-difluorocyclopropyl)-N,N-dimethylmethanamine], the IC50 in assay [1] stood at 72.5 nM; in assay [2] (Homo sapiens, ASPC1, 2 h) it was 1930 nM; in assay [3] (IC50 (nM) (cRaf)), 4410 nM.

As to `Cc1cc2[nH]nc(C)c2c(-c2c(F)cc3c(N4C[C@H]5CC[C@@](C)(C4)N5)nc(OCC4(CN5CC[C@@H](F)C5)CC4)nc3c2F)c1C` [Ex 85, 6,8-difluoro-2-((1-(((R)-3-fluoropyrrolidin-1-yl)methyl)cyclopropyl)methoxy)-4-((1S,5R)-1-methyl-3,8-diazabicyclo [3.2.1]octan-3-yl)-7-(3,5,6-trimethyl-1H-indazol-4-yl)quinazoline], the concentration for half-maximal inhibition (IC50) is 255 nM in assay [1]; 5620 nM in assay [2] (Homo sapiens, ASPC1, 2 h); 18900 nM in assay [3] (IC50 (nM) (cRaf)).

On to `CN(C)C[C@]1(COc2nc(N3CC4CCC(C3)N4)c3cc(Cl)c(-c4cc(O)cc5ccccc45)c(F)c3n2)CC1(F)F` (atropisomer, axis not shown) [Example 11a, 4-(4-(3.8-diazabicyclo[3.2.1]octan-3-yl)-6-chloro-2-(((S)-1-((dimethylamino)methyl)-2,2-difluorocyclopropyl)methoxy)-8-fluoroquinazolin-7-yl)naphthalen-2-ol], for which the 50% inhibitory concentration (IC50) in assay [1] was determined as 24.1 nM; in assay [2] it was 2080 nM; in assay [3] (read-out: IC50 (nM) (cRaf)), 4240 nM.

As to `CN(C)CC1(COc2nc(N3CC4CCC(C3)N4)c3cc(Cl)c(-c4cc(O)c(F)c5ccccc45)c(F)c3n2)CC1` [Example 57, 4-(4-(3,8-diazabicyclo[3.2.1]octan-3-yl)-6-chloro-2-((1-((dimethylamino)methyl)cyclopropyl)methoxy)-8-fluoroquinazolin-7-yl)-1-fluoronaphthalen-2-ol], the IC50 in assay [1] turned out to be 404 nM; in assay [2] (Homo sapiens, ASPC1, 2 h), 6850 nM; in assay [3] (IC50 (nM) (cRaf)), 31500 nM.

Turning to `Cc1cc2[nH]ncc2c(-c2c(F)cc3c(N4CC5CCC(C4)N5)nc(OCC4(CN5CCOCC5)CC4)nc3c2F)c1C(F)(F)F` [Ex 72, 4-((1-(((4-(3,8-diazabicyclo[3.2.1]octan-3-yl)-6,8-difluoro-7-(6-methyl-5-(trifluoromethyl)-1H-indazol-4-yl)quinazolin-2-yl)oxy)methyl)cyclopropyl)methyl)morpholine], the IC50 in assay [1] was 30.8 nM; in assay [2] (Homo sapiens, ASPC1, 2 h), 2500 nM; in assay [3] (IC50 (nM) (cRaf)), 7440 nM.

Consider `C[C@]12CC[C@H](CN(c3nc(OC[C@@]45CCCN4C[C@H](F)C5)nc4c(F)c(-c5cc(O)cc6cccc(Cl)c56)ncc34)C1)N2` [Ex. 99, 5-chloro-4-(8-fluoro-2-(((2R,7aS)-2-fluorotetrahydro-1H-pyrrolizin-7a(5H)-yl)methoxy)-4-((1S,5R)-1-methyl-3,8-diazabicyclo[3.2.1]octan-3-yl)pyrido[4,3-d]pyrimidin-7-yl)naphthalen-2-ol], for which the half-maximal inhibitory concentration (IC50) in assay [1] was found to be 2.46 nM; in assay [2] (Homo sapiens, ASPC1, 2 h) it was 243 nM; in assay [3] (read-out: IC50 (nM) (cRaf)), 57.5 nM.

In the case of `Nc1nc2c(-c3c(F)cc4c(N5CC6CCC(C5)N6)nc(OCC5(CN6CC[C@@H](F)C6)CC5)nc4c3F)ccc(F)c2s1` [Example 61], the IC50 in assay [1] was 38.7 nM; in assay [2] (Homo sapiens, ASPC1, 2 h) it was 7580 nM; in assay [3] (IC50 (nM) (cRaf)), 3350 nM.

For the compound `O=c1oc(-c2cc(O)cc3ccccc23)cc2nc(OCC3(CN4CCOCC4)CC3)nc(N3CC4CCC(C3)N4)c12` [Ex. 95, 4-(3.8-diazabicyclo[3.2.1]octan-3-yl)-7-(3-hydroxynaphthalen-1-yl)-2-((1-(morpholinomethyl)cyclopropyl)methoxy)-5H-pyrano[4.3-d]pyrimidin-5-one], the concentration for half-maximal inhibition (IC50) in assay [1] came out at 73.4 nM; in assay [2], 10800 nM; in assay [3] (read-out: IC50 (nM) (cRaf)) it was 15900 nM.

Turning to `C#Cc1cccc2cc(O)cc(-c3c(F)cc4c(N5C[C@H]6CC[C@@](C)(C5)N6)nc(OCC5(CN6CC[C@@H](F)C6)CC5)nc4c3F)c12` (single isomer, unassigned) [103a], the 50% inhibitory concentration (IC50) in assay [1] was found to be 1.05 nM; in assay [2] it was 3.76 nM; in assay [3] (IC50 (nM) (cRaf)) it was 26.2 nM.

For `Cc1cc2[nH]ncc2c(-c2c(F)cc3c(N4C[C@H]5CC[C@@H](C4)N5)nc(OCC4(CN(C)C)CC4)nc3c2F)c1Cl` [Example 65, 1-(1-(((4-((1R,5S)-3,8-diazabicyclo[3.2.1]octan-3-yl)-7-(5-chloro-6-methyl-1H-indazol-4-yl)-6,8-difluoroquinazolin-2-yl)oxy)methyl)cyclopropyl)-N,N-dimethylmethanamine], the half-inhibitory concentration (IC50) in assay [1] is 272 nM; in assay [2] (Homo sapiens, ASPC1, 2 h), 2840 nM; in assay [3] (IC50 (nM) (cRaf)), 45700 nM.

For `CC[C@H]1N[C@H]2CC[C@@H]1N(c1nc(OCC3(CN(C)C)CC3)nc3c(F)c(-c4cc(O)cc5ccccc45)c(Cl)cc13)C2` [Example 39, 4-(6-chloro-2-((1-((dimethylamino)methyl)cyclopropyl)methoxy)-4-((1S,4S,6R)-6-ethyl-2,5-diazabicyclo[2.2.2]octan-2-yl)-8-fluoroquinazolin-7-yl)naphthalen-2-ol], the IC50 in assay [1] stood at 46.7 nM; in assay [2] (Homo sapiens, ASPC1, 2 h), 3310 nM; in assay [3] (IC50 (nM) (cRaf)) it was 4670 nM.

As a reminder, the IC50 is the concentration that inhibits the measured activity by half.
